From US9765358B2 (priority 2015, dated 2017)

Tests used:
Clostridium beijerinckii = type: cell-based
Lactobacillus plantarum = type: cell-based

amoxicillin/clavulinic acid
antibiotic susceptibility (disc, zone of clearance) (Clostridium beijerinckii): susceptible
antibiotic susceptibility (disc, zone of clearance) (Lactobacillus plantarum): resistant

CC[C@H]1OC(=O)[C@H](C)[C@@H](O[C@H]2C[C@@](C)(OC)[C@@H](O)[C@H](C)O2)[C@H](C)[C@@H](O[C@@H]2O[C@H](C)C[C@H](N(C)C)[C@H]2O)[C@](C)(O)C[C@@H](C)CN(C)[C@H](C)[C@@H](O)[C@]1(C)O [azithromycin]
antibiotic susceptibility (disc, zone of clearance) (Clostridium beijerinckii): susceptible
antibiotic susceptibility (disc, zone of clearance) (Lactobacillus plantarum): susceptible

CC1(C)S[C@@H]2[C@H](NC(=O)C(C(=O)O)c3ccccc3)C(=O)N2[C@H]1C(=O)O (stereo partly drawn) [carbenicillin]
antibiotic susceptibility (disc, zone of clearance) (Clostridium beijerinckii): susceptible
antibiotic susceptibility (disc, zone of clearance) (Lactobacillus plantarum): resistant

Cc1ncc([N+](=O)[O-])n1CCO [metronidazole]
antibiotic susceptibility (disc, zone of clearance) (Clostridium beijerinckii): susceptible
antibiotic susceptibility (disc, zone of clearance) (Lactobacillus plantarum): resistance

CN[C@H](CC(C)C)C(=O)N[C@H]1C(=O)N[C@@H](CC(N)=O)C(=O)N[C@H]2C(=O)N[C@H]3C(=O)N[C@H](C(=O)N[C@H](C(=O)O)c4cc(O)cc(O)c4-c4cc3ccc4O)[C@H](O)c3ccc(c(Cl)c3)Oc3cc2cc(c3O[C@@H]2O[C@H](CO)[C@@H](O)[C@H](O)[C@H]2O[C@H]2C[C@](C)(N)[C@H](O)[C@H](C)O2)Oc2ccc(cc2Cl)[C@H]1O [vancomycin]
antibiotic susceptibility (disc, zone of clearance) (Clostridium beijerinckii): susceptible
